Data as given in US12037344B2, “NLRP3 modulators” (INNATE TUMOR IMMUNITY, INC., priority 2018, dated 2024).
Where two headings read alike, the source gives them in different places.

Experiments:
THP-1 cells = test: Measurement of IL-1β production, hTRF protocol (second alternative procedure), THP-1 cells; assay type: cell-based, human; settings: Homo sapiens
Description: Measurement of IL-1β Production—hTRF Protocol (Second Alternative Procedure)
Serial dilutions of compounds in DMSO were added to low volume 384 well plates at 100 nl/well using an ECHO 550 acoustic dispenser (Labcyte) to achieve final starting concentration of 10 μM in assay.
THP-1 cells in RPMI (Gibco, 11875) media with 10% FBS at a density of 1×10^6 cell/ml in a T175 flask were treated with a final concentration of phorbol 12-myristate 13-acetate (PMA) (Sigma, P1585) of 50 ng/ml overnight at 37° C. at 5% CO2 for differentiation. Cells were harvested the next day after rinsing well with dPBS using 0.5% trypsin. A cell solution was prepared of 1×10^6 cells/ml for 50,000 cells in 50 μl/well in RPMI media with 2% FBS. Cells were plated using a multichannel pipette onto the compound dilutions in Greiner, 384 well, black clear bottom tissue culture treated plates (781090). The plates were incubated in 37° C. incubator at 5% CO2 for 2 hours.
After the 2 hour incubation, the cell plates were spun in the centrifuge for 5 minutes at 1200 rpm. Using the Felix (CyBio), 8 μl of the supernatant was transferred to 384 well, low volume, white proxy plates. (Perkin Elmer, 6008230). A human IL1beta hTRF kit was used to analyze the supernatant (CISBIO, 62HIL1BPEG). The kit instructions were followed for preparing the IL1Beta standard curve and then the antibodies from the kit were diluted 1:40 rather than 1:20 as kit instructed. Once combined, the antibodies were added across the plates, 5 μl/well. The plates were sealed and incubated at 4° C. overnight. The plates were then read on the Perkin Elmer EnVision at 665/615 nm using the hTRF laser.

TLR8 = molecular target: T1, TLR8 (Homo sapiens, UniProt Q9NR97); test: In vitro human TLR8 binding reporter assay (HEK-Blue, NF-kB/AP1-inducible SEAP); assay type: cell-based; settings: activity range class, read-out: TLR8 Agonist EC50
T1 construct: human HEK-Blue cells co-expressing a TLR7 or TLR8 gene
T1 sequence (Q9NR97 27-1041): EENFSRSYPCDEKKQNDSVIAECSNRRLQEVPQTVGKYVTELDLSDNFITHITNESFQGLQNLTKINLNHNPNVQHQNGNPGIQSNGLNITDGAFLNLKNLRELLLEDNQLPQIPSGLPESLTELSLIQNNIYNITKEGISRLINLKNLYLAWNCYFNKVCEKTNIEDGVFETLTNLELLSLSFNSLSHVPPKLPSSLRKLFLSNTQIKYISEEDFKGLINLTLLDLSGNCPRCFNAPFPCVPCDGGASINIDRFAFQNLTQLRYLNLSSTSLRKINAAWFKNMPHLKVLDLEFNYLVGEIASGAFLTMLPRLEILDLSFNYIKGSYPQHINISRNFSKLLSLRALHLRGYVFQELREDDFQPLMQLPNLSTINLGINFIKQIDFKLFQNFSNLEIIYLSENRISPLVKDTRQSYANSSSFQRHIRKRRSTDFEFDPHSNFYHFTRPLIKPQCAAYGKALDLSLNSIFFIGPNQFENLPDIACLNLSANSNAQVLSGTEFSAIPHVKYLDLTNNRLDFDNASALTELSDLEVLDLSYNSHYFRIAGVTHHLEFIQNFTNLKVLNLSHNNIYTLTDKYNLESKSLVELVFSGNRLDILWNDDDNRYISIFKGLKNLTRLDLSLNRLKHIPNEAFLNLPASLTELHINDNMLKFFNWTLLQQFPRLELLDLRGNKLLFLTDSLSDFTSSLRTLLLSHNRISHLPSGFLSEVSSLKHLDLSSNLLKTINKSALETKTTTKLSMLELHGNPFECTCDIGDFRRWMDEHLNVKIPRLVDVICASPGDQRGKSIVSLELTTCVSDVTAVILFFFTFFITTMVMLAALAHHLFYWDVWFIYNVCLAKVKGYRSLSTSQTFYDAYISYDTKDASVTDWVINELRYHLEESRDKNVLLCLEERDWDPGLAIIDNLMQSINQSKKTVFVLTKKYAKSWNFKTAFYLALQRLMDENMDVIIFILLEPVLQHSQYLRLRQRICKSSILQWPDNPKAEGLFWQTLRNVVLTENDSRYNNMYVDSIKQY
Description: (§1) In Vitro Human TLR7 and TLR8 Binding Reporter Assays
(§2) Logarithmically-growing human HEK-Blue cells co-expressing a TLR7 or TLR8 gene and a NF-kB/AP1-inducible SEAP (secreted embryonic alkaline phosphatase; Invivogen, San Diego, CA) reporter gene are added to individual wells of a 384-well plate (15,000 cells per 20 μL per well) and maintained for 24 h at 37° C., 5% CO2. Test compounds or DMSO are distributed to separate wells the next day using acoustic liquid handling technology (100 nL per well) and cells are subsequently incubated for 18 h at 37° C., 5% CO2. Cellular SEAP production is measured using an Envision plate reader instrument thirty minutes after adding freshly-made Quanti-Blue reagent (prepared by following manufacturer instructions; Invivogen, San Diego, CA) to the HEK-Blue TLR Nf-kB-SEAP cell reactions. All EC50 values (half-maximal effective concentration) are determined using proprietary data analysis software. Normalized EC50 value=absolute value determined by setting 100% Ymax using a reference standard RLU (relative light unit) values from cells treated with 50 μM of the reference standard.

TLR7 = molecular target: T2, TLR7 (Homo sapiens, UniProt Q9NYK1); test: In vitro human TLR7 binding reporter assay (HEK-Blue, NF-kB/AP1-inducible SEAP); assay type: cell-based; settings: activity range class, read-out: TLR7 Agonist EC50
T2 construct: human HEK-Blue cells co-expressing a TLR7 or TLR8 gene
T2 sequence (Q9NYK1 27-1049): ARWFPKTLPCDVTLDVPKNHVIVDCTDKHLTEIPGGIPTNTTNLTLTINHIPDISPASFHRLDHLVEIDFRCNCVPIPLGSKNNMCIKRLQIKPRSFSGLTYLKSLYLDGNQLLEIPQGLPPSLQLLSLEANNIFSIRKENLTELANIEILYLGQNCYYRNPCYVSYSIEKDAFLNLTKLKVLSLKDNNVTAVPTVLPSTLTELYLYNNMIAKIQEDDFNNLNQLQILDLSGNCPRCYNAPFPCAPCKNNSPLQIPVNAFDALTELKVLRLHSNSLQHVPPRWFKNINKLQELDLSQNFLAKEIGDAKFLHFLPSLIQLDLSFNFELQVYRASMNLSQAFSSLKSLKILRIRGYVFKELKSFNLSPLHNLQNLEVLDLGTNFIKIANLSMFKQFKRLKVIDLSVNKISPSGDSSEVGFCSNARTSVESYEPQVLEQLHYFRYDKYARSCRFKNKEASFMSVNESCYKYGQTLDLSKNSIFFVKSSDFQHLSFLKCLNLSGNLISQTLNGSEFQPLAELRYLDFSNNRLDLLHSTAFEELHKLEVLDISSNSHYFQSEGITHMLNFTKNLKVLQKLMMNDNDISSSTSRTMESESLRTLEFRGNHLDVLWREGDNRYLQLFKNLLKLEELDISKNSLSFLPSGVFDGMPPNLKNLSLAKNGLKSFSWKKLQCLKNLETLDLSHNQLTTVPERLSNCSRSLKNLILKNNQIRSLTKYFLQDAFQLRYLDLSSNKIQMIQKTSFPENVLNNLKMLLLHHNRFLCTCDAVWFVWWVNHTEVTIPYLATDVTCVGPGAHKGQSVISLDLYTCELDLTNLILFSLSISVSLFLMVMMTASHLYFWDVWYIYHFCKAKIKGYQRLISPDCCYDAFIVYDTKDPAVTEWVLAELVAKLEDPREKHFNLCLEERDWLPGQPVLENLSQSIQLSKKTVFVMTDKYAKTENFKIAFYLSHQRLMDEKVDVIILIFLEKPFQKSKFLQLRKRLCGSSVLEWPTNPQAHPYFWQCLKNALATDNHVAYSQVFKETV
Description: as §1, §2

[1] = THP-1, IL-1β production, human, read-out: NLRP3 hILIB EC50
[2] = THP-1, read-out: NLRP3 hILIB EC50

Compound | EC50 (THP-1 cells; [1]) | EC50 (TLR8) | EC50 (TLR7) | EC50 (THP-1 cells; [2])
CCOCCn1cc2c(n1)c(N)nc1cc(-n3cccn3)ccc12 [Example 10, 2-(2-ethoxyethyl)-7-(1H-pyrazol-1-yl)-2H-pyrazolo[3,4-c]quinolin-4-amine] | 1 µM | 1 to 20 µM | 20 to 100 µM | 
Nc1nc2cc(-n3cccn3)ccc2c2cn(CCN3CCCC3=O)nc12 [Example 11] | 2.09 µM | > 100 µM | 20 to 100 µM | 
Cc1cc(C)n(CCn2cc3c(n2)c(N)nc2cc(-n4cccn4)ccc23)n1 [Example 12] | 1.52 µM | 20 to 100 µM | 20 to 100 µM | 
Nc1nc2cc(-n3cccn3)ccc2c2cn(CC3CCCO3)nc12 (stereo not drawn) [Example 17] | 2.2 µM | > 100 µM | 20 to 100 µM | 
Nc1nc2cc(-c3cc[nH]n3)ccc2c2cn(CCN3CCOCC3)nc12 [Example 20, 2-[2-(morpholin-4-yl)ethyl]-7-(1H-pyrazol-3-yl)-2H-pyrazolo[3,4-c]quinolin-4-amine] |  | > 100 µM | 20 to 100 µM | 1.08 µM
CN(C)CCn1cc2c(n1)c(N)nc1cc(-c3cc[nH]n3)ccc12 [Example 21] | 2.08 µM | > 100 µM | 20 to 100 µM | 
CN(C)CCCn1cc2c(n1)c(N)nc1cc(-c3cc[nH]n3)ccc12 [Example 22] | 0.63 µM | > 100 µM | 20 to 100 µM | 
Nc1nc2cc(-c3cc[nH]n3)ccc2c2cn(CCC(=O)Nc3ccccc3)nc12 [Example 23] | 1.39 µM | > 100 µM | > 100 µM | 
CCN(CCn1cc2c(n1)c(N)nc1cc(-c3cc[nH]n3)ccc12)C(C)=O [Example 29, N-[2-[4-amino-7-(1H-pyrazol-3-yl)-2H-pyrazolo[3,4-c]quinolin-2-yl]ethyl]-N-ethylacetamide] |  | > 100 µM | > 100 µM | 6.01 µM
Nc1nc2cc(-c3cc[nH]n3)ccc2c2cn(CCN3CC4COCC4C3)nc12 (stereo not drawn) [Example 30, 2-(2-{hexahydro-1H-furo[3,4-c]pyrrol-5-yl}ethyl)-7-(1H-pyrazol-3-yl)-2H-pyrazolo[3,4-c]quinolin-4-amine] | 0.77 µM | > 100 µM | > 100 µM | 
CC(C)C(=O)NCCn1cc2c(n1)c(N)nc1cc(-c3cc[nH]n3)ccc12 [Example 34] | 8.85 µM | > 100 µM | 20 to 100 µM | 
Nc1nc2cc(-c3cc[nH]n3)ccc2c2cn(CCNC(=O)CO)nc12 [Example 35] | 20.7 µM | > 100 µM | 20 to 100 µM | 

Further compounds by falling EC50 (THP-1 cells; [1]), results first:

EC50 (THP-1 cells; [1]) | EC50 (TLR8) | EC50 (TLR7) | Compound | EC50 (THP-1 cells; [2])
14.7 µM | > 100 µM | 1 to 20 µM | COc1ccc(CC(=O)NCCn2cc3c(n2)c(N)nc2cc(-c4cc[nH]n4)ccc23)cc1 [Example 32] | 
11.8 µM | > 100 µM | > 100 µM | CC(=O)NCCn1cc2c(n1)c(N)nc1cc(-c3cc[nH]n3)ccc12 [Example 33] | 
11.3 µM | > 100 µM | 20 to 100 µM | Nc1nc2cc(-n3cccn3)ccc2c2cn(C[C@H]3CCC(=O)N3)nc12 [Example 16] | 
3.88 µM | 20 to 100 µM | 20 to 100 µM | CCNC(=O)Cn1cc2c(n1)c(N)nc1cc(-n3cccn3)ccc12 [Example 19] | 
2.9 µM | > 100 µM | > 100 µM | CCNC(=O)Cn1cc2c(n1)c(N)nc1cc(-c3cc[nH]n3)ccc12 [Example 24] | 
1.81 µM | > 100 µM | 20 to 100 µM | COCCOCCn1cc2c(n1)c(N)nc1cc(-n3cccn3)ccc12 [Example 15] | 
1.78 µM | > 100 µM | 20 to 100 µM | Nc1nc2cc(-n3cccn3)ccc2c2cn(CCN3CCOCC3)nc12 [Example 13] | 
1.68 µM | 20 to 100 µM | 20 to 100 µM | Nc1nc2cc(-n3cccn3)ccc2c2cn(Cc3ccccn3)nc12 [Example 14] | 
1.31 µM | > 100 µM | > 100 µM | Nc1nc2cc(-c3cc[nH]n3)ccc2c2cn(CC(=O)Nc3ccccn3)nc12 [Example 28] | 
1.13 µM | > 100 µM | 20 to 100 µM | Nc1nc2cc(-n3cccn3)ccc2c2cn(CC3CCCCO3)nc12 (stereo not drawn) [Example 18] | 
0.98 µM | > 100 µM | > 100 µM | Nc1nc2cc(-c3cc[nH]n3)ccc2c2cn(CCCc3cccnc3)nc12 [Example 26] | 
0.43 µM | > 100 µM | > 100 µM | Nc1nc2cc(-c3cc[nH]n3)ccc2c2cn(CCCN3CCOCC3)nc12 [Example 27] | 
0.26 µM | > 100 µM | > 100 µM | Nc1nc2cc(-c3cc[nH]n3)ccc2c2cn(Cc3ccccn3)nc12 [Example 25] | 
0.15 µM | 1 to 20 µM | 20 to 100 µM | Nc1nc2cc(-c3cc[nH]n3)ccc2c2cn(CCNC(=O)c3ccc(F)cn3)nc12 [Example 31, N-{2-[4-amino-7-(1H-pyrazol-3-yl)-2H-pyrazolo[3,4-c]quinolin-2-yl]ethyl}-5-fluoropyridine-2-carboxamide] | 
